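1) Cells in 96-well plates. 2) Compound, 48 h, 5 concentrations. 3) Linear interpolation between surrounding doses. 4) Unreached endpoint = highest concentration. Abbreviation: GI50, concentration required for 50% inhibition of growth.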 Activity calls are given as the source filed them. Rule as the data show it: active = GI50 up to about 1.1 µM and inactive = higher.
Tests used:
Assay in all cases: growth of human tumour cells (NCI), 48 h
HT-29 = test system: HT-29
NCI-H522 = test system: NCI-H522
HCT-116 = test system: HCT-116
UACC-257 = test system: UACC-257
M14 = test system: M14
OVCAR-3 = test system: OVCAR-3
COLO 205 = test system: COLO 205
SF-295 = test system: SF-295
NCI-H226 = test system: NCI-H226
RXF 393 = test system: RXF 393
A549 = test system: A549
NCI-H460 = test system: NCI-H460
HOP-92 = test system: HOP-92
HCT-15 = test system: HCT-15
SK-MEL-28 = test system: SK-MEL-28
CAKI-1 = test system: CAKI-1
SK-MEL-5 = test system: SK-MEL-5
KM12 = test system: KM12

Compound	GI50 (HT-29)	GI50 (NCI-H522)	GI50 (HCT-116)	GI50 (UACC-257)	GI50 (M14)	GI50 (OVCAR-3)	GI50 (COLO 205)	GI50 (SF-295)	GI50 (NCI-H226)	GI50 (RXF 393)	GI50 (A549)	GI50 (NCI-H460)	GI50 (HOP-92)	GI50 (HCT-15)	GI50 (SK-MEL-28)	GI50 (CAKI-1)	GI50 (SK-MEL-5)	GI50 (KM12)
CCC1(CC)C(=O)NC(=O)NC1=S	> 100 µM (inactive)	> 100 µM (inactive)	> 100 µM (inactive)	> 100 µM (inactive)	> 100 µM (inactive)	> 100 µM (inactive)	> 100 µM (inactive)	> 100 µM (inactive)	> 100 µM (inactive)	> 100 µM (inactive)	> 100 µM (inactive)	> 100 µM (inactive)	> 100 µM (inactive)	> 100 µM	> 100 µM (inactive)			
COc1ccc(NC(=O)CC2SC(Nc3ccc(Cl)cc3C)=NC2=O)c([N+](=O)[O-])c1 (stereo unspecified)	> 100 µM (inactive)	> 100 µM (inactive)	> 100 µM (inactive)	> 100 µM (inactive)	> 100 µM (inactive)	> 100 µM (inactive)		> 100 µM (inactive)	> 100 µM (inactive)	> 100 µM (inactive)	> 100 µM (inactive)	> 100 µM (inactive)	> 100 µM (inactive)	> 100 µM	> 100 µM (inactive)	> 100 µM (inactive)	> 100 µM (inactive)	
c1ccc(CNn2nnc3ccccc32)cc1	> 100 µM (inactive)	> 100 µM (inactive)		> 100 µM (inactive)	> 100 µM (inactive)	> 100 µM (inactive)	> 100 µM (inactive)	> 100 µM (inactive)		> 100 µM (inactive)	> 100 µM (inactive)	> 100 µM (inactive)	> 100 µM (inactive)	> 100 µM	> 100 µM (inactive)	> 100 µM (inactive)	> 100 µM (inactive)	> 100 µM (inactive)
O=c1c2c(c1=O)-c1ccccc1CN2	> 100 µM (inactive)	> 100 µM (inactive)	> 100 µM (inactive)	> 100 µM (inactive)	> 100 µM (inactive)	> 100 µM (inactive)	> 100 µM (inactive)		> 100 µM (inactive)	> 100 µM (inactive)	> 100 µM (inactive)	> 100 µM (inactive)	> 100 µM (inactive)	> 100 µM	> 100 µM (inactive)	> 100 µM (inactive)	> 100 µM (inactive)	> 100 µM (inactive)
CC(C)OP(=O)(OC(C)C)/C(=N/Nc1ccccc1[N+](=O)[O-])NCCN/C(=N\Nc1ccccc1[N+](=O)[O-])P(=O)(OC(C)C)OC(C)C		31.8 µM (inactive)	27.9 µM (inactive)	29.2 µM (inactive)	36.1 µM (inactive)	42.7 µM (inactive)	25.2 µM (inactive)		24.4 µM (inactive)		29.4 µM (inactive)	> 10 µM (inactive)	32 µM (inactive)	30.3 µM	39.4 µM (inactive)	25.6 µM (inactive)	> 10 µM (inactive)	40.3 µM (inactive)
COc1ccc([C@@H]2CC(=O)NCCCNCCCCNCCCN2)cc1	> 100 µM (inactive)	30.8 µM (inactive)	> 100 µM (inactive)	> 100 µM (inactive)	> 100 µM (inactive)		> 100 µM (inactive)	> 100 µM (inactive)	79.6 µM (inactive)	> 100 µM (inactive)	> 100 µM (inactive)	> 100 µM (inactive)	> 100 µM (inactive)	> 100 µM	> 100 µM (inactive)	> 100 µM (inactive)	> 100 µM (inactive)	> 100 µM (inactive)
[O-][n+]1c2c([n+]([O-])c3ccccc31)CCCCCCCCCC2	> 100 µM (inactive)	77.1 µM (inactive)	> 100 µM (inactive)	67.8 µM (inactive)	> 100 µM (inactive)	> 100 µM (inactive)		> 100 µM (inactive)	14.2 µM (inactive)		> 100 µM (inactive)		67.8 µM (inactive)	> 100 µM	> 100 µM (inactive)	> 100 µM (inactive)		> 100 µM (inactive)
O=P1(Oc2ccccc2)C(c2ccccc2)C(c2ccccc2)=NN1c1ccccc1 (stereo unspecified)	18.3 µM (inactive)	19 µM (inactive)	17.2 µM (inactive)	27.9 µM (inactive)	19.7 µM (inactive)	19.7 µM (inactive)	18.9 µM (inactive)	28.2 µM (inactive)	23.5 µM (inactive)	24.2 µM (inactive)	29.2 µM (inactive)	24.2 µM (inactive)		19.6 µM	25.6 µM (inactive)	23.9 µM (inactive)		25.8 µM (inactive)

Source: ChEMBL document CHEMBL1201862, “PubChem BioAssay data set” (2004)
